From patent US7321027B2, “Small technetium-99m and rhenium labeled agents and methods for imaging tumors” (President and Fellows of Harvard College, priority 2000, dated 2008)

Assays:
[1] = Determination of lipophilicity and pKa values by HPLC; assay type: physicochemical; settings: HPLC method
Method: The physicochemical parameters of the rhenium complexes, i.e. lipophilicity log P, log D(pH 7.4), and pKa (Table 2) were determined using HPLC methods (Braumann, T.; Grimme, L. H. Determination of Hydrophobic Parameters for Pyridazinone Herbicides by Liquid-Liquid Partition and Reversed-Phase High-Performance Liquid Chromatography. J. Chromatogr. 1981, 206, 7-15; Stytli, C.; Theobald, A. E. Determination of Ionization Constants of Radiopharmaceuticals in Mixed Solvents by HPLC. Appl. Radiat. Isot., 1987, 38, 701-708; Johannsen, B.; Scheunemann, M.; Spies, H.; Brust, P.; Wober, J.; Syhre, R.; Pietzsch, H.-J. Technetium(V) and Rhenium(V) Complexes for 5-HT2A Serotonin Receptor Binding: Structure-Affinity Considerations. Nucl. Med. Biol., 1996, 23, 429-438; and Johannsen, B.; Berger, R.; Brust, P.; Pietzsch, H.-J; Scheunemann, M.; Seifert, S.; Spies, H.; Syhre, R. Structural Modification of Receptor-Binding Technetium-99m Complexes in Order to Improve Brain Uptake. Eur. J. Nucl. Med. 1997, 24, 316-319). […] Since log D(pH 7.4) is a composite measure of log P and pKa, the log D(PH 7.4) of Re-Compound B (1.9) is also higher than that of Re-Compound A (1.1). […] With pKa values >9 for complexes Re-Compound C and Re-Compound D, the resulting low log D(PH 7.4) values of −0.5 (Re-Compound C) and 0.7 (Re-Compound D) are not surprising, since the complexes would exist in a protonated form at pH 7.4.
Determination of Lipophilicity and pKa Values. The lipophilicity and pKa values of all complexes were determined using HPLC methods described previously (Stylli, C.; Theobald, A. E. Determination of Ionization Constants of 4 Radiopharmaceuticals in Mixed Solvents by HPLC. Appl. Radiat. Isot., 1987, 38, 701-708; Johannsen, B.; Scheunemann, M.; Spies, H.; Brust, P.; Wober, J.; Syhre, R.; Pietzsch, H.-J. Technetium(V) and Rhenium(V) Complexes for 5-HT2A Serotonin Receptor Binding: Structure-Affinity Considerations. Nucl. Med. Biol., 1996, 23, 429-438; and Johannsen, B.; Berger, R.; Brust, P.; Pietzsch, H.-J.; Scheunemann, M.; Seifert, S.; Spies, H.; Syhre, R. Structural Modification of Receptor-Binding Technetium-99m Complexes in Order to Improve Brain Uptake. Eur. J. Nucl. Med. 1997, 24, 316-319). […] The mobile phase was acetonitrile:phosphate buffer (0.01 M), 3:1, v/v, with the aqueous buffer adjusted to the desired pH between 3 and 11. The capacity factor (k′) was calculated for each determination (Braumann, T.; Grimme, L. H. Determination of Hydrophobic Parameters for Pyridazinone Herbicides by Liquid-Liquid Partition and Reversed-Phase High-Performance Liquid Chromatography. J. Chromatogr. 1981, 206, 7-15; El Tayer, N.; van der Waterbeemd, H.; Testa, B. Lipophilicity Measurements of Protonated Basic Compounds by Reversed-Phase High-Performance Liquid Chromatography. II. Procedure for the Determination of a Lipophilic Index Measured by Reversed-Phase High Performance Liquid Chromatography. J. Chromatogr. 1985, 320, 305-312; and Minick, D. J.; Frenz, J. H.; Patrick, M. A.; Brent, D. A. A Comprehensive Method for Determining Hydrophobicity Constants by Reversed-Phase High-Performance Liquid Chromatography. J. Med. Chem., 1988, 31, 1923-1933) and the partition coefficient at a given pH (D or log D) were calculated from the equation: log D=a log k′+b where the parameters a and b are predetermined using standard amines. The fitted points of inflection from the sigmoidal DHPLC/pH profiles permit calculation of the pKHPLC(Stylli, C.; Theobald, A. E. Determination of Ionization Constants of Radiopharmaceuticals in Mixed Solvents by HPLC. Appl. Radiat. Isot., 1987, 38, 701-708). The aqueous ionization constants pKa were calculated from the pKHPLC values after correction with a predetermined correction factor obtained using standard amine compounds. Log P values of the neutral complexes were estimated from the respective upper plateau of the sigmoidal log D/pH curve in the alkaline range.

B16/F0 cells = assay: Tumor-cell uptake in the presence of DTG; assay type: cell-based, murine; settings: 37° C.; for IC50: read-out: DTG concentration at 50% maximal inhibition of complex uptake, intact B16/F0 cells, DTG as the inhibitor; for lower tumor-cell uptake after pre-incubation with DTG: DTG 90 μM, 30 min prior
Text: J. Labelled Compd. Radiopharm. 1994, 35, 242-244; Vilner, B. J.; John, C. S.; Bowen, W. D. Sigma-I and Sigma-2 Receptors Are Expressed in a Wide Variety of Human and Rodent Tumor Cell Lines. Cancer Res. 1995, 55, 408-413; and John, C. S.; Vilner, B. J.; Gulden, M. E.; Efange, S. M. N.; Langason, R. B.; Moody, T. W.; Bowen, W. D. Synthesis and Pharmacological Characterization of 4-[^125I]-N-(N-Benzylpiperidin-4-yl)-4-iodobenzamide: A High Affinity σ Receptor Ligand for Potential Imaging of Breast Cancer. […] Pre-incubation of the tumor cells with DTG (90 μM), 30 min prior to the uptake experiments with the ^99mTc-complexes, yields a lower tumor-cell uptake for complexes Tc-(Compound A) (29% less), Tc-(Compound C) (33% less), and Tc-(Compound D) (32% less) at 37° C. (FIG. 4). Additional dose-response experiments conducted with intact B16/F0 cells at 37° C. with Tc-(Compound C) and DTG as the inhibitor (FIG. 3) show a DTG concentration-dependent decrease in the uptake of the complex.
The effect of the inhibitor DTG on cell uptake of these complexes was studied by addition of the inhibitor at various concentrations to the cell suspension 30 min prior to addition of the ^99mTc-complexes. Fresh DTG stock solutions were made by dissolving DTG (3.0 mg, 12.5 μmol) in 0.38 mL PBS and 0.12 mL hydrochloric acid (0.1 N) and subjecting the mixture to ultrasound until a clear solution was obtained, followed by the addition of 0.50 mL FBS to produce a neutral solution at pH 7.4. The stock solutions were diluted by an appropriate amount of S-MEM, and aliquots between 5 μL and 25 μL were added to the cell suspension such that the final concentration of DTG was between 0.02 μM and 120 μM in a total cell suspension volume of 350 μL.

[2] = system: B16/F0 murine melanoma cells; assay: In-vitro tumor-cell uptake, melanoma cells; assay type: cell-based; settings: for decrease in cell uptake, incubation temperature from 37° C. to 4° C.: 4° C. vs 37° C.; for maximal cell uptake: 37° C., B16/F0 cell line
Method: (§1) In-Vitro Tumor-Uptake Studies. Tumor-cell uptake studies in B16/F0 murine melanoma cells were performed with complexes Tc-(Compound A-D and H-M) at 37° C. and 4° C. Additionally, tumor-cell uptake of complex Tc-(Compound A) was investigated in another rapidly dividing MCF-7 human breast cancer cell line.
In-Vitro Cell Studies. Murine B16/F0 melanoma cells and human MCF-7 breast cancer cells were obtained from American Type Culture Collection, Manassas Va., (ATCC) and were grown in T-175 flasks in 14 mL Dulbecco's Modified Eagle Medium (D-MEM; Gibco, Life Technology, Gaithersburg, Md.) containing 4500 mg/L D-glucose, L-glutamine, and pyridoxine hydrochloride, 110 mg/L sodium pyruvate, 10% fetal bovine serum (FBS), 0.2% gentamicin and 0.5% penicillin-streptomycin solution. All cells were harvested from cell culture flasks by trypsinization with 1 mL trypsin-EDTA solution (0.25% trypsin, 1 mM EDTA×4 Na) (Gibco). After being washed with 12 mL Dulbecco's Phosphate-Buffered Saline (PBS) (Gibco), pH 7.2 (Ca^2+- and Mg^2+-free; g/L KCl, 0.20; KH2PO4, 0.20; NaCl, 8.00; Na2HPO4, 1.15), the cells were counted and resuspended in 8 mL S-MEM (Gibco) (Ca^2+ free, with reduced Mg^2+ content) and stored at 4° C. until use.
For in-vitro tumor-cell accumulation studies, 5×10^6 cells in polypropylene test tubes were incubated at 37° C. or 4° C., with intermittent agitation with 1-2 μCi (5 μL) ^99mTc-complex Tc-(Compound A-D) in a total volume of 350 μL S-MEM. At appropriate time intervals the tubes were vortexed and 8-μL samples were layered on 350 μL cold FBS in a 400-μL Eppendorf microcentrifuge tube. After centrifugation at 15,000 rpm for 2 min, the tubes were frozen in a dry ice-acetone bath. While still frozen, the bottom tip of the microcentrifuge tube containing the cell pellet was cut and placed in a counting tube. The remaining portion of the tube with the supernatant was placed in a separate counting tube. Both fractions were counted for radioactivity in a γ-counter (WALLAC, 1480 WIZARD 3″™). The amount of supernatant in the cell pellet was determined to be <1% in separate experiments. The percentage cell uptake of the ^99mTc-complex was calculated as: % uptake=[cpm(pellet)]/[cpm(pellet)+cpm(supernatant)]×100

[3] = system: MCF-7 human breast cancer cell line; assay: In-vitro tumor-cell uptake, breast cancer cells; assay type: cell-based; settings: 37° C., MCF-7 cell line
Method: as §1
In-Vitro Cell Studies. […] After being washed with 12 mL Dulbecco's Phosphate-Buffered Saline (PBS) (Gibco), pH 7.2 (Ca^2+- and Mg^2+-free; g/L KCl, 0.20; KH2PO4, 0.20; NaCl, 8.00; Na2HPO4, 1.15), the cells were counted and resuspended in 8 mL S-MEM (Gibco) (Ca^2+ free, with reduced Mg^2+ content) and stored at 4° C. until use.
For in-vitro tumor-cell accumulation studies, 5×10^6 cells in polypropylene test tubes were incubated at 37° C. or 4° C., with intermittent agitation with 1-2 μCi (5 μL) ^99mTc-complex Tc-(Compound A-D) in a total volume of 350 μL S-MEM. […] Both fractions were counted for radioactivity in a γ-counter (WALLAC, 1480 WIZARD 3″™). The amount of supernatant in the cell pellet was determined to be <1% in separate experiments. The percentage cell uptake of the ^99mTc-complex was calculated as: % uptake=[cpm(pellet)]/[cpm(pellet)+cpm(supernatant)]×100

B16/F0 murine melanoma = assay: In-vivo tumor uptake and biodistribution; design: species or system C57B16 mice; settings: mouse, in vivo
Method: In-Vivo Tumor Uptake. To study the tumor uptake of ^99mTc-complexes, Tc-(Compound A-D and J-K), in vivo, biodistribution experiments at 1 h and 6 h after their administration were carried out in C57B16 mice with palpable B16 melanoma nodules. The biodistribution data including melanoma/nontumor (M/NT) ratios for selected organs are summarized in Table 4 and 5 as percentage injected dose per gram ([…]).
Animal Studies. All animal experiments were performed in compliance with the Principles of Laboratory Animal Care (NIH publication #85-23, revised 1985). Biodistribution studies and tumor-uptake measurements were performed in C57B16 mice (15 to 20 g) bearing the B16/F0 murine melanoma on the hind limb. See for example the studies described in, which are hereby incorporated by reference, Brandau, W.; Niehoff, T.; Pulawski, P.; Jonas, M.; Dutschka, K.; Sciuk, J.; Coenen, H. H.; Schober, O. Structure Distribution Relationship of Iodine-123-Iodobenzamides as Tracers for the Detection of Melanotic Melanoma. J. Nucl. Med. 1996, 37, 1865-1871; Mohanmmed, A.; Nicholl, C.; Titsch, U.; Eisenhut, M. Radiojodinated N-(Alkylaminoalkyl)-Substituted 4-Methoxy-, 4-Hydroxy-, and 4-Aminobenzamides: Biological Investigations for the Improvement of Melanoma-Imaging Agents. Nucl. Med. Biol. 1997, 24, 373-380; Titsch, U.; Mohammed, A.; Wagner, S.; Oberdorfer, F.; Eisenhut, M. Syntheses of N-(2-Diethylaminoethyl)benzamides Suitable for ^99mTc Complexation. J. Labelled Compd. Radiopharm. 1997, 40, 416-418; Dittmann, H.; Coenen, H. H.; Zölzer, F.; Dutschka, K.; Brandau, W.; Streffer, C. In Vitro Studies on the Cellular Uptake of Melanoma Imaging Aminoalkyl-iodobenzamide Derivatives (ABA). Nucl. Med. Biol. 1999, 26, 51-56; and Michelot, J. M.; Moreau, M. F. C.; Veyre, A. J.; Bonafous, J. F.; Bacin, F. J.; Madelmont, J. C.; Bussiere, F.; Souteyrand, P. A.; Mauclaire, L. P.; Chossat, F. M.; Papon, J. M.; Labarre, P. G.; Kauffmann, Ph.; Plagne, R. J. Phase II Scintigraphic Clinical Trial of Malignant Melanoma and Metastases with Iodine-123-N-(2-Diethylaminoethyl 4-Iodobenzamide). J. Nucl. Med. 1993, 34, 1260-1266. The tumor cells (B16/F0), obtained from ATCC, were washed with PBS and transplanted subcutaneously on the left hind flank by an inoculation of 0.5×10^6 cells (0.1 mL). Ten to 14 days later the animals developed palpable tumor nodules 3 to 5 mm in diameter. The biodistribution studies were carried out by tail-vein injection of 25 to 30 μCi (0.05 to 0.1 mL) of the ^99mTc-labeled complexes Tc-(Compound A-D, H, J, K or M). At the designated time after tail-vein administration, the animals were weighed and sacrificed. The organs and tumors were harvested and, when appropriate, blotted dry, weighed, and counted in a gamma counter along with technetium-99m standards of the injected dose. The results are expressed as % ID/g tissue (Table 4 and 5)

CCN(CC)CCN1CC[S][Re]2(=[O])[S]CC[N]2C(=O)C1 (centres unmarked) [Re-Compound A, [ReOAADT]-C2—NEt2]
log P [1]: 1.6
pKa [1]: 7.7
log D(pH 7.4) [1]: 1.1

CCCCN(CCCC)CCN1CC[S][Re]2(=[O])[S]CC[N]2C(=O)C1 (centres unmarked) [Re-Compound B, [ReOAADT]-C2—NBu2]
log P [1]: 3.3
pKa [1]: 7.7
log D(pH 7.4) [1]: 1.9

CCCCN(CCCC)CCCN1CC[S][Re]2(=[O])[S]CC[N]2C(=O)C1 (centres unmarked) [Re-Compound D, [ReOAADT]-C3—NBu2]
log D(pH 7.4) [1]: 0.7

CCN(CC)CCN1CC[S][Tc]2(=[O])[S]CC[N]2C(=O)C1 (centres unmarked) [Tc-(Compound A)]
IC50 (B16/F0 cells): 21 µM

CCN(CC)CCCN1CC[S][99Tc]2(=[O])[S]CC[N]2C(=O)C1 (centres unmarked) [Tc-(Compound C)]
decrease in cell uptake, incubation temperature from 37° C. to 4° C. [2]: 77%
maximal cell uptake [2]: 62%
maximum cell uptake [3]: 17%
lower tumor-cell uptake after pre-incubation with DTG (B16/F0 cells): 33%
mel/blood ratio (B16/F0 murine melanoma): 19
mel/lung ratio (B16/F0 murine melanoma): 12.7
mel/spleen ratio (B16/F0 murine melanoma): 19

CCN(CC)CCCN1CC[S][Tc]2(=[O])[S]CC[N]2C(=O)C1 (centres unmarked) [Tc-(Compound C)]
IC50 (B16/F0 cells): 49 µM

CCCCN(CCCC)CCCN1CC[S][99Tc]2(=[O])[S]CC[N]2C(=O)C1 (centres unmarked) [Tc-(Compound D)]
decrease in cell uptake, incubation temperature from 37° C. to 4° C. [2]: 23%
maximal cell uptake [2]: 68%
lower tumor-cell uptake after pre-incubation with DTG (B16/F0 cells): 32%

CCCCN(CCCC)CCCN1CC[S][Tc]2(=[O])[S]CC[N]2C(=O)C1 (centres unmarked) [Tc-(Compound D)]
IC50 (B16/F0 cells): 52 µM
